The values that follow are results of earlier work, collected in patent US6368616B1, “Aqueous suspension for nasal administration of loteprednol” (Senju Pharmaceutical Co., Ltd., priority 1997, dated 2002).

On to `CCOC(=O)O[C@]1(C(=O)OCCl)CC[C@H]2[C@@H]3CCC4=CC(=O)C=C[C@]4(C)[C@H]3[C@@H](O)C[C@@]21C` [loteprednol etabonate, Loteprednol etabonate], for which the solubility in water entry is “substantially insoluble in water”.
